Source: article PMC10535856, “CD4^+ T Cell Responses to Toxoplasma gondii Are a Double-Edged Sword” (Vaccines, 2023)
Where no end group is shown, it is not given here.

Experiments:
[1] = test system: Toxoplasma gondii tachyzoites and encysted bradyzoites; settings: cited from earlier work
I-A^b [2] = biological target: T1, I-A^b (Mus musculus, UniProt P14434+P14483); set-up: method as in PMID 7895164, PMID 32763137; settings: cited from earlier work
T1 sequence (P14434 24-256): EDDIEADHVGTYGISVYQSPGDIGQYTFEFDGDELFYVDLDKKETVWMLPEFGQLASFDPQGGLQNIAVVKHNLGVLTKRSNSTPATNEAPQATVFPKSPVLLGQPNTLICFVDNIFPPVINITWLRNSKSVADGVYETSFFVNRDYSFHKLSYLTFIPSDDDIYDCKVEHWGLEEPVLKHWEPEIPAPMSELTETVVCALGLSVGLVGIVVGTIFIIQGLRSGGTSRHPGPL
T1 sequence (P14483 28-265): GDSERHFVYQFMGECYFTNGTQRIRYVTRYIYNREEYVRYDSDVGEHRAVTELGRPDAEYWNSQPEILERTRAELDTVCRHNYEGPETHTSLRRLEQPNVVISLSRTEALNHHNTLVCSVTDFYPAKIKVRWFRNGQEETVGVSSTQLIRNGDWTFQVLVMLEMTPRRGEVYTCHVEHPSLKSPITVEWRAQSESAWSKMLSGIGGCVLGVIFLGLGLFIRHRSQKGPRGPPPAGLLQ

CD4^+ T cells = settings: in vitro human PBMCs and in vivo mice; cited from earlier work
Excerpt: Vaccines that are composed of polypeptides that elicit epitope-restricted CD4^+ and CD8^+ T cells have the potential to induce an immune response against human toxoplasmic infection in humans. We are building a rational “immunosense” approach that utilizes epitope selection for peptides that can be presented by human major histocompatibility complexes (MHCs) to elicit protective CD8^+ and CD4^+ T cells. We have made considerable efforts to iden ...

[3] = test system: uninfected HLA-A*11:01 transgenic mice; test: Mortality and tolerability after boost immunization; format: in vivo, mouse
I-A^b [4] = biological target: T1, I-A^b; test: Competitive peptide binding to I-A^b; settings: competitive binding study, procedure of ref 51; 'bound weakly'

**Q.** Which results are given for `CCc1nc(N)nc(N)c1-c1ccc(Cl)cc1` [Pyrimethamine]?
**A.** Activity against actively replicating tachyzoites [1]: effective against actively replicating tachyzoites; Elimination of encysted bradyzoites [1]: cannot eliminate encysted bradyzoites

**Q.** With `Nc1ccc(S(=O)(=O)Nc2ncccn2)cc1` [sulfadiazine] as the compound, how does the “Activity against actively replicating tachyzoites” value [1] read?
**A.** effective against actively replicating tachyzoites

**Q.** What about the “Elimination of encysted bradyzoites” value [1] of the same compound?
**A.** cannot eliminate encysted bradyzoites

**Q.** Which results are given for AKFVAAWTLKAAA [PADRE]?
**A.** Affinity to I-A^b (I-A^b [2]): relatively high affinity; Generation of responsive CD4^+ T cells (CD4^+ T cells): contributes to the generation of responsive CD4^+ T cells

**Q.** For AVEIHRPVPGTAPPS [AS15, AVEIHRPVPGTAPPS], which “Harmful response to single components” value ([3]; AS15 or GLA-SE alone) is on record?
**A.** neither AS15 nor GLA-SE alone elicit this harmful response

**Q.** What about the “Overall effect in summary cartoon” value ([3]; Figure S1, single components) of the same compound?
**A.** No effect

**Q.** What about the IC50 (I-A^b [4]) of the same compound?
**A.** 413 nM
